Molecular target: HIV-1 protease (Human immunodeficiency virus type 1 group M subtype B, UniProt P04585)
Assay type: cell-based
Settings: Gal4/PR cell line induced by Dox, incubated with protease inhibitor
Text: This type of cleavage was successfully monitored by a previously developed assay for HIV-1. The assay was developed in mammalian cells and relied on an engineered Gal4/protease fusion protein that travels to the nucleus and activates the GFP reporter gene when inhibited. The activation or lack thereof of the reporter GFP gene can be measured and quantified via flow cytometry.
In the absence of Dox, rtTA cannot bind to the Tet-Responsive Element (TRE) and consequently, there is no GFP expression from the reporter construct. In the presence of Dox, rtTA binds to TRE and induces GFP expression. […] In the presence of Dox, PR/Gal4 is expressed; however, its autocatalytic activity results in the separation of the Gal4 domains, resulting in turn in the lack of GFP expression. However, in the presence of protease inhibitor (PI), the PR/Gal4 fusion remains intact, resulting in the induction of GFP expression.
The plasmids include the rtTA, GFP reporter and Gal4 fusions. The Gal4 plasmids include Gal4 control, Gal4/PRm (mutant) and Gal4/PR.
In order to be able to easily discriminate between cleaved and non-cleaved events (or active and non-active protease), the assay relied on the classical Gal4/UAS system broadly used in gene expression experiments. […]

CC(C)(C)NC(=O)[C@@H]1CN(Cc2cccnc2)CCN1C[C@@H](O)C[C@@H](Cc1ccccc1)C(=O)N[C@H]1c2ccccc2C[C@H]1O [Indinavir]
GFP expression of the PR cell line (flow cytometry): not green when induced by Dox, unless it is also incubated with the PI IDV
